Reference: paper PMC10174618, “Monoterpenoid aryl hydrocarbon receptor allosteric antagonists protect against ultraviolet skin damage in female mice” (Nature Communications, 2023)

What was measured:
Experiment in all cases: biochemical
Parameters in all cases: KINOMEscan scanMAX active site-directed competition binding assay, percent of control, 468 kinases
Settings in all cases: competition binding, percent of control
ACVR1B = ACVR1B (Homo sapiens, UniProt P36896)
Procedure, shortened: (§1)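 KINOMEscan active site-directed competition binding assay against 468 human kinases with 100 μM S-carvone. Binding expressed as % of control, with 35% of control as the inhibition threshold.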

MAK = MAK (Homo sapiens, UniProt P20794)
Procedure, shortened: as §1

NDR1 = biological target: T1, NDR1 (Homo sapiens, UniProt Q15208)
T1 construct: gene STK38
T1 sequence (Q15208 whole entry): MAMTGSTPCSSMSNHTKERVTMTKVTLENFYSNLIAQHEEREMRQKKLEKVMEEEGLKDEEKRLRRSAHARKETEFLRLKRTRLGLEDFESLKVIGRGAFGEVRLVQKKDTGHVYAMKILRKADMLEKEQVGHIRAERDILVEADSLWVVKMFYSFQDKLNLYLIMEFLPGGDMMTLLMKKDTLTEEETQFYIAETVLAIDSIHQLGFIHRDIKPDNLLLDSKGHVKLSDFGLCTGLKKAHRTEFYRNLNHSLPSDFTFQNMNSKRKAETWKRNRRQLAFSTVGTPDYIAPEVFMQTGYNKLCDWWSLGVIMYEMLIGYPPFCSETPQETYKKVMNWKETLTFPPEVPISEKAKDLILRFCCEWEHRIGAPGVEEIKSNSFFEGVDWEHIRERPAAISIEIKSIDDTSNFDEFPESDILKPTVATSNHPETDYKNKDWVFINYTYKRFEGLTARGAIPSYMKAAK
Procedure, shortened: as §1

ACVRL1 = ACVRL1 (Homo sapiens, UniProt P37023)
Procedure, shortened: as §1

EPHA3 = EPHA3 (Homo sapiens, UniProt P29320)
Procedure, shortened: as §1

DRAK1 = biological target: T2, DRAK1 (Homo sapiens, UniProt Q9UEE5)
T2 construct: gene STK17A
Procedure, shortened: as §1

PIK3CA(H1047L) = PIK3CA(H1047L) (Homo sapiens, UniProt P42336, H1047L)
Procedure, shortened: as §1

MYO3B = MYO3B (Homo sapiens, UniProt Q8WXR4)
Procedure, shortened: as §1

MAP4K2 = MAP4K2 (Homo sapiens, UniProt Q12851)
MAP4K2, sequence (Q12851 whole entry): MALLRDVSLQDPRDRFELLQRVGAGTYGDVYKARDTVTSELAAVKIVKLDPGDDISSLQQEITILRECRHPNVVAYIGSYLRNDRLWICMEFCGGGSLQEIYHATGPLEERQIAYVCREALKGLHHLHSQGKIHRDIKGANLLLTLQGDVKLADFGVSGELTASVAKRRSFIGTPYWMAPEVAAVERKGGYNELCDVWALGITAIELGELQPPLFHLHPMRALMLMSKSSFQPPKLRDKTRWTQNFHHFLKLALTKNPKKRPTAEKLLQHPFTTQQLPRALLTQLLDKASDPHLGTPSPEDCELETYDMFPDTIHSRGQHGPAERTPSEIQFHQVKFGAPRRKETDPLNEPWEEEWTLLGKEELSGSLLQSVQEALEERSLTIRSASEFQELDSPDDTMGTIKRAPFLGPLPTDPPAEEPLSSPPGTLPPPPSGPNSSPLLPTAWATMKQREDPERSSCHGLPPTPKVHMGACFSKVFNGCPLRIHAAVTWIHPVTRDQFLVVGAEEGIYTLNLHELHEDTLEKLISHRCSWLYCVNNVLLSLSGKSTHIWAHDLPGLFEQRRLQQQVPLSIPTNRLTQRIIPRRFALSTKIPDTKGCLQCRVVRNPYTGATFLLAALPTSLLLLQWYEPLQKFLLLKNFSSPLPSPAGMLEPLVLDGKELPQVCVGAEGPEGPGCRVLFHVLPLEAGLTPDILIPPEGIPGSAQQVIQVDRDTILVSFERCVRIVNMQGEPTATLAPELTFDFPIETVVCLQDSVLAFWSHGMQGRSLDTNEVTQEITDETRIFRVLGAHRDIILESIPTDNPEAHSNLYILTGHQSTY
Procedure, shortened: as §1

BRSK1 = BRSK1 (Homo sapiens, UniProt Q8TDC3)
Procedure, shortened: as §1

MAP3K1 = MAP3K1 (Homo sapiens, UniProt Q13233)
Procedure, shortened: as §1

NEK11 = NEK11 (Homo sapiens, UniProt Q8NG66)
NEK11, sequence (Q8NG66 whole entry): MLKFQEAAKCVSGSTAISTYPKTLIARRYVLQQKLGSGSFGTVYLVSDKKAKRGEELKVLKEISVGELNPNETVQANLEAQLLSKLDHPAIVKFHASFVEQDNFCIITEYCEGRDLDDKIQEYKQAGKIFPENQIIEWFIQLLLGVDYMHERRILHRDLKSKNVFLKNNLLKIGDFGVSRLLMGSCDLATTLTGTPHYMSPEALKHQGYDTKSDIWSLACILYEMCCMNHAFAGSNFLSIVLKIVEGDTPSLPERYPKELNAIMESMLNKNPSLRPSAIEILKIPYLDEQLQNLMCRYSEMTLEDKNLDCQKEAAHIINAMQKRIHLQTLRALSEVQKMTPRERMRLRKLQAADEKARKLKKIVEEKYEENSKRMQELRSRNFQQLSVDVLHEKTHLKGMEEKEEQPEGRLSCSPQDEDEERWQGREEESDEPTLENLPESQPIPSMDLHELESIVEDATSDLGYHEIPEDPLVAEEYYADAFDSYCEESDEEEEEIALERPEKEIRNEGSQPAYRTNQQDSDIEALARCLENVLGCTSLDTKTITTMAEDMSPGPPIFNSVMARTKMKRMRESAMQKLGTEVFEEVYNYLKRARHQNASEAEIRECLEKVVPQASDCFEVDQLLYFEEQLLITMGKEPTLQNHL
Procedure, shortened: as §1

TAK1 = biological target: T3, TAK1 (Homo sapiens, UniProt O43318)
T3 construct: gene MAP3K7
Procedure, shortened: as §1

CDKL3 = CDKL3 (Homo sapiens, UniProt Q8IVW4)
Procedure, shortened: as §1

WNK1 = WNK1 (Homo sapiens, UniProt Q9H4A3)
WNK1, sequence (Q9H4A3 whole entry): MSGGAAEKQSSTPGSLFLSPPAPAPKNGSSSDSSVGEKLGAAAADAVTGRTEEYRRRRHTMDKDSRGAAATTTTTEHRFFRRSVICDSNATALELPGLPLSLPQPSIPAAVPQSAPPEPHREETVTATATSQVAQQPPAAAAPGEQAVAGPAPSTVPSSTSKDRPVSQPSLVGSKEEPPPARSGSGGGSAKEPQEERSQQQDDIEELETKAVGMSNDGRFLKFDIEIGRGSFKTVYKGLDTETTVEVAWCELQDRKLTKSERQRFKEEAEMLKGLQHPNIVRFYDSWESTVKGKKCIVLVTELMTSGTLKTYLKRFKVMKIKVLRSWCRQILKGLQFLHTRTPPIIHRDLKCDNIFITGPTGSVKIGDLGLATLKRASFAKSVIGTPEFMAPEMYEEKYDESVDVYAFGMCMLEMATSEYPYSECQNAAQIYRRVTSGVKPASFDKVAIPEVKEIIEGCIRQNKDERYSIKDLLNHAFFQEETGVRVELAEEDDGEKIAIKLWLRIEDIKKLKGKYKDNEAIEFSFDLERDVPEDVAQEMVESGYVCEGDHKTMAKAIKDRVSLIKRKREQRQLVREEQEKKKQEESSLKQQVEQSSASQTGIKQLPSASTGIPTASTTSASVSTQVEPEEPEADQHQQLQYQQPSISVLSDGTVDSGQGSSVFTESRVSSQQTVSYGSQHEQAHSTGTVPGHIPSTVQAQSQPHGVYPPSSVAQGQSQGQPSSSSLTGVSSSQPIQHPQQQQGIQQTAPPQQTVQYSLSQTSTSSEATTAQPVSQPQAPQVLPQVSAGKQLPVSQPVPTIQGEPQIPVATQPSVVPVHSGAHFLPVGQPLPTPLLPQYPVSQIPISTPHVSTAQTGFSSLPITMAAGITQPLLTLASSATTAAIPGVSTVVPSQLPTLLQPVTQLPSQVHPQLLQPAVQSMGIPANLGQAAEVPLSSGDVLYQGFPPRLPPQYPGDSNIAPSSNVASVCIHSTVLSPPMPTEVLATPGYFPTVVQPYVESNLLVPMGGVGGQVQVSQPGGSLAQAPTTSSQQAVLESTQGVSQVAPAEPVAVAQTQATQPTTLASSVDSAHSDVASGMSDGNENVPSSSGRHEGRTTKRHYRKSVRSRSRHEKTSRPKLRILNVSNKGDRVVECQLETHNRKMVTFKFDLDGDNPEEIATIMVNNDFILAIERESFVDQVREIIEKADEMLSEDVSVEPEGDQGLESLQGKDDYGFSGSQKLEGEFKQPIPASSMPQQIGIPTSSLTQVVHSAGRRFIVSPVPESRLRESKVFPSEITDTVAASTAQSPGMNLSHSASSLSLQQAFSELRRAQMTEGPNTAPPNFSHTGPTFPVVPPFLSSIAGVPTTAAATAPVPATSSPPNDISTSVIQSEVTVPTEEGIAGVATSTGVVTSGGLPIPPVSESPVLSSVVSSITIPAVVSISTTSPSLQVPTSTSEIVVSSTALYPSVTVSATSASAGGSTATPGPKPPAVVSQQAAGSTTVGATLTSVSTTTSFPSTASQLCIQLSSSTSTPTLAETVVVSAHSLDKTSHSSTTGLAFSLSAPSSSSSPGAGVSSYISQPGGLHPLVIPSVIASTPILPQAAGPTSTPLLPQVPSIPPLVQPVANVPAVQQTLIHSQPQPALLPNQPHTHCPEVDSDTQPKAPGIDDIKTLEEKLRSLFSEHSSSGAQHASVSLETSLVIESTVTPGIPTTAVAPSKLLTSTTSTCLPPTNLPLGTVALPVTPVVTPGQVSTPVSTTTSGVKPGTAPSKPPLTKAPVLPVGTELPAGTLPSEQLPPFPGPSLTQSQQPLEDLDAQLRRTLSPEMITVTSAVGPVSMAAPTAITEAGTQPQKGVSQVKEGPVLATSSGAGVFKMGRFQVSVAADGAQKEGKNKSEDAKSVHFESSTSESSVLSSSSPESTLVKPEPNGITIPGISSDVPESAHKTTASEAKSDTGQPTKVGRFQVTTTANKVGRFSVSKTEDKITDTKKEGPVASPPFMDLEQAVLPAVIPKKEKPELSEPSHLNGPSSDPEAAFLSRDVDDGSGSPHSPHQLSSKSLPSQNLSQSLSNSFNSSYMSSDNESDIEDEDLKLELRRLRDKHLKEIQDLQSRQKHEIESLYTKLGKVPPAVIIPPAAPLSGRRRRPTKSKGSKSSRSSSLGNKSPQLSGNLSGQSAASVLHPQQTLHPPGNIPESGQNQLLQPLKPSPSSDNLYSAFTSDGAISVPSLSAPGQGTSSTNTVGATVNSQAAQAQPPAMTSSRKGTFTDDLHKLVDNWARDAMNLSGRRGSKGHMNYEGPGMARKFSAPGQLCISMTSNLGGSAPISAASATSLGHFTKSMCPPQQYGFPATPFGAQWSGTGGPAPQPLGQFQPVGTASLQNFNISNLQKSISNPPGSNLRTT
Procedure, shortened: as §1

SNARK = biological target: T4, SNARK (Homo sapiens, UniProt Q9H093)
T4 construct: gene NUAK2
Procedure, shortened: as §1

TRKB = biological target: T5, TRKB (Homo sapiens, UniProt Q16620)
T5 construct: gene NTRK2
Procedure, shortened: as §1

FGFR1 = FGFR1 (Homo sapiens, UniProt P11362)
Procedure, shortened: as §1

NDR2 = biological target: T6, NDR2 (Homo sapiens, UniProt Q9Y2H1)
T6 construct: gene STK38L
T6 sequence (Q9Y2H1 whole entry): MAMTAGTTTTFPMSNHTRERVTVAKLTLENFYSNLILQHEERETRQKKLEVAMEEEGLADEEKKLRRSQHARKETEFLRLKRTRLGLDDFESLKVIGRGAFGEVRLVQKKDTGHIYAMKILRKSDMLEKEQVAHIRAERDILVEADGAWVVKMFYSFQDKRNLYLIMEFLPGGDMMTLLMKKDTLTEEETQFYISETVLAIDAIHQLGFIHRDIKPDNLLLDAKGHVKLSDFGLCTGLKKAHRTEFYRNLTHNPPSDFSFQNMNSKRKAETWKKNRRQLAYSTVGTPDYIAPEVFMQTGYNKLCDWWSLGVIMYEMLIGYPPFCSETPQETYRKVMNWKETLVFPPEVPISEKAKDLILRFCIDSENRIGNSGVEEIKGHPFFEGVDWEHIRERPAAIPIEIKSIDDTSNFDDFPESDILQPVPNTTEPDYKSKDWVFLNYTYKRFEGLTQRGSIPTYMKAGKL
Procedure, shortened: as §1

GRK4 = GRK4 (Homo sapiens, UniProt P32298)
Procedure, shortened: as §1

CSNK1E = CSNK1E (Homo sapiens, UniProt P49674)
Procedure, shortened: as §1

TIE2 = biological target: T7, TIE2 (Homo sapiens, UniProt Q02763)
T7 construct: gene TEK
Procedure, shortened: as §1

C=C(C)[C@H]1CC=C(C)C(=O)C1 [S-carvone]
remaining binding at 100 µM (ACVR1B): 98%
remaining binding at 100 µM (MAK): 73%
remaining binding at 100 µM (NDR1): 77%
remaining binding at 100 µM (ACVRL1): 88%
remaining binding at 100 µM (EPHA3): 100%
remaining binding at 100 µM (DRAK1): 100%
remaining binding at 100 µM (PIK3CA(H1047L)): 74%
remaining binding at 100 µM (MYO3B): 94%
remaining binding at 100 µM (MAP4K2): 94%
remaining binding at 100 µM (BRSK1): 100%
remaining binding at 100 µM (MAP3K1): 60%
remaining binding at 100 µM (NEK11): 52%
remaining binding at 100 µM (TAK1): 79%
remaining binding at 100 µM (CDKL3): 89%
remaining binding at 100 µM (WNK1): 86%
remaining binding at 100 µM (SNARK): 81%
remaining binding at 100 µM (TRKB): 78%
remaining binding at 100 µM (FGFR1): 92%
remaining binding at 100 µM (NDR2): 83%
remaining binding at 100 µM (GRK4): 66%
remaining binding at 100 µM (CSNK1E): 90%
remaining binding at 100 µM (TIE2): 84%
